Test results published in PubChem BioAssay (NCI).
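Interpolation was linear, between the two tested concentrations surrounding the appropriate level; five concentrations were tested over 48 hours in 96-well plates. GI50 marks 50% less growth. TGI: total growth inhibition.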

Columns and labels:
Test in all cases: NCI-60 cell line screen, 48 h
M14 melanoma = test system: M14 melanoma
CCRF-CEM leukemia = test system: CCRF-CEM leukemia
HT29 colon = test system: HT29 colon
LOX IMVI melanoma = test system: LOX IMVI melanoma
SK-MEL-5 melanoma = test system: SK-MEL-5 melanoma
UACC-62 melanoma = test system: UACC-62 melanoma
SK-MEL-2 melanoma = test system: SK-MEL-2 melanoma
NCI-H23 lung = test system: NCI-H23 lung
HCT-116 colon = test system: HCT-116 colon
MALME-3M melanoma = test system: MALME-3M melanoma
NCI-H460 lung = test system: NCI-H460 lung
SF-539 CNS = test system: SF-539 CNS
IGROV1 ovarian = test system: IGROV1 ovarian
786-0 renal = test system: 786-0 renal
EKVX NSCLC = test system: EKVX NSCLC
MOLT-4 leukemia = test system: MOLT-4 leukemia
SF-268 CNS = test system: SF-268 CNS
OVCAR-4 ovarian = test system: OVCAR-4 ovarian
RXF 393 renal = test system: RXF 393 renal
HCT-15 colon = test system: HCT-15 colon
MCF7 breast = test system: MCF7 breast
SW-620 colon = test system: SW-620 colon
UACC-257 melanoma = test system: UACC-257 melanoma
HOP-62 NSCLC = test system: HOP-62 NSCLC
CAKI-1 renal = test system: CAKI-1 renal
COLO 205 colon = test system: COLO 205 colon
RPMI-8226 leukemia = test system: RPMI-8226 leukemia
NCI/ADR-RES ovarian = test system: NCI/ADR-RES ovarian
BT-549 breast = test system: BT-549 breast
SR leukemia = test system: SR leukemia
DU-145 prostate = test system: DU-145 prostate
OVCAR-5 ovarian = test system: OVCAR-5 ovarian
OVCAR-3 ovarian = test system: OVCAR-3 ovarian
SF-295 CNS = test system: SF-295 CNS
K-562 leukemia = test system: K-562 leukemia
MDA-MB-231 breast = test system: MDA-MB-231 breast
NCI-H226 lung = test system: NCI-H226 lung
PC-3 prostate = test system: PC-3 prostate
HL-60(TB) leukemia = test system: HL-60(TB) leukemia
U251 CNS = test system: U251 CNS
SN12C renal = test system: SN12C renal
SNB-75 CNS = test system: SNB-75 CNS
SK-OV-3 ovarian = test system: SK-OV-3 ovarian
TK-10 renal = test system: TK-10 renal
SK-MEL-28 melanoma = test system: SK-MEL-28 melanoma
HOP-92 NSCLC = test system: HOP-92 NSCLC
NCI-H522 lung = test system: NCI-H522 lung
ACHN renal = test system: ACHN renal
T-47D breast = test system: T-47D breast
OVCAR-8 ovarian = test system: OVCAR-8 ovarian
UO-31 renal = test system: UO-31 renal
A549 NSCLC = test system: A549 NSCLC
SNB-19 CNS = test system: SNB-19 CNS
KM12 colon = test system: KM12 colon
HCC-2998 colon = test system: HCC-2998 colon
A498 renal = test system: A498 renal
HS 578T breast = test system: HS 578T breast

COc1ccc(C(=O)N2c3ccccc3Sc3ccccc32)c(F)c1
GI50 (M14 melanoma): 0.371 µM | TGI (M14 melanoma): > 100 µM | GI50 (CCRF-CEM leukemia): 0.522 µM | TGI (CCRF-CEM leukemia): > 100 µM | GI50 (HT29 colon): 0.38 µM | TGI (HT29 colon): 43.3 µM | GI50 (LOX IMVI melanoma): 0.726 µM | TGI (LOX IMVI melanoma): > 100 µM | GI50 (SK-MEL-5 melanoma): 0.759 µM | TGI (SK-MEL-5 melanoma): 22.5 µM | GI50 (UACC-62 melanoma): 0.382 µM | TGI (UACC-62 melanoma): > 100 µM | GI50 (SK-MEL-2 melanoma): 0.531 µM | TGI (SK-MEL-2 melanoma): > 100 µM | GI50 (NCI-H23 lung): 3.42 µM | TGI (NCI-H23 lung): > 100 µM | GI50 (HCT-116 colon): 0.393 µM | TGI (HCT-116 colon): > 100 µM | GI50 (MALME-3M melanoma): 16.2 µM | TGI (MALME-3M melanoma): > 100 µM | GI50 (NCI-H460 lung): 0.485 µM | TGI (NCI-H460 lung): > 100 µM | GI50 (SF-539 CNS): 0.409 µM | TGI (SF-539 CNS): 3.36 µM | GI50 (IGROV1 ovarian): 0.808 µM | TGI (IGROV1 ovarian): > 100 µM | GI50 (786-0 renal): 0.675 µM | TGI (786-0 renal): > 100 µM | GI50 (EKVX NSCLC): 2.72 µM | TGI (EKVX NSCLC): > 100 µM | GI50 (MOLT-4 leukemia): 0.715 µM | TGI (MOLT-4 leukemia): > 100 µM | GI50 (SF-268 CNS): 10.7 µM | TGI (SF-268 CNS): > 100 µM | GI50 (OVCAR-4 ovarian): 2.01 µM | TGI (OVCAR-4 ovarian): > 100 µM | GI50 (RXF 393 renal): 0.764 µM | TGI (RXF 393 renal): > 100 µM | GI50 (HCT-15 colon): 0.419 µM | TGI (HCT-15 colon): > 100 µM | GI50 (MCF7 breast): 0.405 µM | TGI (MCF7 breast): > 100 µM | GI50 (SW-620 colon): 0.458 µM | TGI (SW-620 colon): > 100 µM | GI50 (UACC-257 melanoma): > 100 µM | TGI (UACC-257 melanoma): > 100 µM | GI50 (HOP-62 NSCLC): 0.968 µM | TGI (HOP-62 NSCLC): > 100 µM | GI50 (CAKI-1 renal): 0.584 µM | TGI (CAKI-1 renal): > 100 µM | GI50 (COLO 205 colon): 0.445 µM | TGI (COLO 205 colon): 26.8 µM | GI50 (RPMI-8226 leukemia): 0.922 µM | TGI (RPMI-8226 leukemia): 63 µM | GI50 (NCI/ADR-RES ovarian): 0.517 µM | TGI (NCI/ADR-RES ovarian): > 100 µM | GI50 (BT-549 breast): 0.676 µM | TGI (BT-549 breast): > 100 µM | GI50 (SR leukemia): 0.38 µM | TGI (SR leukemia): > 100 µM | GI50 (DU-145 prostate): 1.4 µM | TGI (DU-145 prostate): > 100 µM | GI50 (OVCAR-5 ovarian): 3.66 µM | TGI (OVCAR-5 ovarian): > 100 µM | GI50 (OVCAR-3 ovarian): 0.418 µM | TGI (OVCAR-3 ovarian): > 100 µM | GI50 (SF-295 CNS): 0.395 µM | TGI (SF-295 CNS): > 100 µM | GI50 (K-562 leukemia): 0.442 µM | TGI (K-562 leukemia): > 100 µM | GI50 (MDA-MB-231 breast): 3.52 µM | TGI (MDA-MB-231 breast): > 100 µM | GI50 (NCI-H226 lung): 2.35 µM | TGI (NCI-H226 lung): > 100 µM | GI50 (PC-3 prostate): 0.407 µM | TGI (PC-3 prostate): > 100 µM | GI50 (HL-60(TB) leukemia): 0.325 µM | TGI (HL-60(TB) leukemia): > 100 µM | GI50 (U251 CNS): 0.615 µM | TGI (U251 CNS): > 100 µM | GI50 (SN12C renal): 1.94 µM | TGI (SN12C renal): > 100 µM | GI50 (SNB-75 CNS): 0.288 µM | TGI (SNB-75 CNS): 34 µM | GI50 (SK-OV-3 ovarian): 4.13 µM | TGI (SK-OV-3 ovarian): > 100 µM | GI50 (TK-10 renal): 10.4 µM | TGI (TK-10 renal): > 100 µM | GI50 (SK-MEL-28 melanoma): 1.64 µM | TGI (SK-MEL-28 melanoma): > 100 µM | GI50 (HOP-92 NSCLC): 0.238 µM | TGI (HOP-92 NSCLC): 59.7 µM | GI50 (NCI-H522 lung): 0.403 µM | TGI (NCI-H522 lung): > 100 µM | GI50 (ACHN renal): 0.831 µM | TGI (ACHN renal): > 100 µM | GI50 (T-47D breast): 0.639 µM | TGI (T-47D breast): > 100 µM | GI50 (OVCAR-8 ovarian): 2.2 µM | TGI (OVCAR-8 ovarian): > 100 µM | GI50 (UO-31 renal): 3.78 µM | TGI (UO-31 renal): > 100 µM | GI50 (A549 NSCLC): 1.19 µM | TGI (A549 NSCLC): > 100 µM | GI50 (SNB-19 CNS): 0.571 µM | TGI (SNB-19 CNS): > 100 µM | GI50 (KM12 colon): 0.489 µM | TGI (KM12 colon): > 100 µM | GI50 (HCC-2998 colon): 2.38 µM | TGI (HCC-2998 colon): > 100 µM | GI50 (A498 renal): 0.33 µM | TGI (A498 renal): 8.68 µM | GI50 (HS 578T breast): 0.377 µM | TGI (HS 578T breast): > 100 µM
